Measurements published in article PMC4459529 (Chemistry & biology, 2015).

Target: monoacylglycerol lipase (MGL) (Rattus norvegicus, UniProt Q8R431)
Test: biochemical

monoacylglycerol lipase (MGL), sequence (Q8R431 whole entry): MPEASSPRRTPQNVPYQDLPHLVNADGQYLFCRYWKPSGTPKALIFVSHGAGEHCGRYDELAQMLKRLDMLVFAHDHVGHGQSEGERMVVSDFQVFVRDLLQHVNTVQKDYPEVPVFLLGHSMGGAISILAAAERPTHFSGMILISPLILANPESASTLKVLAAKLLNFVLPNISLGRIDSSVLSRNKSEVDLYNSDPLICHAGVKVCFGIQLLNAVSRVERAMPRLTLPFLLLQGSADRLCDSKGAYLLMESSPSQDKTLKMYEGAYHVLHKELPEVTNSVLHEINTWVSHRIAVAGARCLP

IC50: 8.2 ± 1.3 µM
SMILES: OO [hydrogen peroxide]
